The record followed here is patent US10544112B2, “Identification of ebsulfur analogues with broad-spectrum antifungal activity” (priority 2017, dated 2020).

Values after ≈ are worked out from the molar mass of the structure shown.

What all share (format): cell-based
Assay [1] concerns Aspergillus flavus ATCC MYA-3631 (strain K). The experiment in a line: Antifungal MIC determination, filamentous fungi spores. Particulars: all compounds. An outline of the steps: (§1)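 A modified CLSI M27-A3 protocol is used, with final compound levels from 12.5 to 0.02 μg/mL in two-fold steps. Cells are incubated at 5×10^3 CFU/mL in buffered RPMI 1640 at 35° C for 48 h.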
Assay [2] relates to Aspergillus terreus ATCC MYA-3633 (strain M). Described as above. As to conditions: strain M; all compounds; spores. An outline of the steps: as §1
Assay [3] relates to Aspergillus nidulans ATCC 38163 (strain L). The assay is described as above. Particulars: strain L; spores. The gist of the method:
as §1

Assay [4] concerns Candida glabrata ATCC 2001 (strain H). As to the kind of experiment: Antifungal MIC determination (CLSI M27-A3, 96-well). As to conditions: strain H; compounds 1-4n and AmB; 48 h, RPMI 1640. An outline of the steps: (§2)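 CLSI M27-A3 microdilution, modified; RPMI 1640/0.165 M MOPS pH 7.0; final drug 12.5-0.02 μg/mL (2-fold series), inoculum 5×10^3 CFU/mL; 48 h, 35° C. Aspergillus: spores from 3-5 day PDA cultures at 25° C, tested likewise.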

For assay [5], the system named is Candida krusei ATCC 6258 (strain I). The assay is described as above. Particulars: strain I; compounds 1-4n and AmB; 48 h, RPMI 1640. The gist of the method: as §2
In assay [6] the test system is Candida albicans ATCC 10231 (strain A). The description is as above. As to conditions: strain A; compounds 1-4n and AmB; 48 h, RPMI 1640. The gist of the method:
as §2

For assay [7], the system named is Candida parapsilosis ATCC 22019 (strain J). The description is as above. As to conditions: strain J; compounds 1-4n and AmB; 48 h, RPMI 1640. The gist of the method:
as §2

In the next assay the test system is Candida strains (A-J). As to the kind of experiment: Antifungal MIC, summary over panel of Candida strains. The procedure:
Fungal MIC determination experiments were performed using untreated 96-well plates (Corning). Cells were counted either by using a hemocytometer (Hausser Scientific, Horsham, Pa., USA) or by measuring optical density at attenuance of 600 nm (OD600) by using a Genesys 20 spectrophotometer (Thermo Scientific, Waltham, Mass., USA). Spectrophotometric and colorimetric measurements in 96-well plates were performed using a SpectraMax M5 spectrometer (Molecular Devices, Sunnyvale, Calif., USA).
Yeast strains Candida albicans ATCC 10231 (strain A), C. albicans ATCC 64124 (strain B), and C. albicans ATCC MYA-2876(S) (strain C) were kindly provided by Dr. Jon Y. Takemoto (Utah State University, Logan, UT, USA). C. albicans ATCC MYA-90819(R) (strain D), C. albicans ATCC MYA-2310(S) (strain E), C. albicans ATCC 1237(R) (strain F), C. albicans ATCC MYA-1003(R) (strain G), Candida glabrata ATCC 2001 (strain H), Candida krusei ATCC 6258 (strain I), and Candida parapsilosis ATCC 22019 (strain J) were obtained from the American Type Culture Collection (ATCC, Manassas, Va., USA). The (S) and (R) indicate that ATCC reports these strains to be susceptible (S) and resistant (R) to ITC and FLC. The filamentous fungal strains Aspergillus flavus ATCC MYA-3631 (strain K), and Aspergillus terreus ATCC MYA-3633 (strain M) were also obtained from the American Type Culture Collection (ATCC, Manassas, Va., USA). Aspergillus nidulans ATCC 38163 (strain L) was kindly provided by Dr. Jon S. Thorson (University of Kentucky, Lexington, Ky., USA), respectively. Yeast strains were cultured at 35° C. Filamentous fungal strains were cultured at 25° C. and the spores were harvested. All fungal strains were cultured in RPMI 1640 medium (catalog # R6504, Sigma-Aldrich Chemical Co., St. Louis, Mo.) buffered to pH 7.0 with 0.165 M morpholinepropanesulfonic acid (MOPS) buffer (Sigma-Aldrich Chemical Co.).
The MIC values against fungal strains were determined based on a previously published protocol. MIC values for ebsulfur (2a) analogues against fungal cells were evaluated in 96-well plates as described in the CLSI document M27-A3 with minor modifications. […] Therefore, potato dextrose broth (PDB) was used to grow the yeast inocula of all strains tested, which were later diluted in RPMI 1640 medium to perform determination of MIC values. […] The tested compounds (10 mg/mL) were diluted to the working stocks (500 μg/mL) by addition of DMSO. Two-fold serial dilution of the working stocks was prepared by addition of RPMI 1640 medium (100 μL) and cell suspension (100 μL) to 96-well microtiter plate to achieve final drug and inoculum concentrations ranging from 12.5-0.02 μg/mL and 5×10^3 CFU/mL, respectively. Plates were incubated for 48 h at 35° C. […]

Turning to `CCCCCCn1sc2ccccc2c1=O` [Compound 3b], the MIC-0 in assay [1] is no more than 0.02 µg/mL; in assay [2], no more than 0.02 µg/mL; in assay [3] it was ≤≤0.02 μg/mL; in assay [4] it was 1.56 µg/mL (≈ 6.63 µM); in assay [5], 0.78 µg/mL (≈ 3.31 µM); in assay [6], 1.56 µg/mL (≈ 6.63 µM). Besides, in assay [7], the MIC-0 came to 0.78 µg/mL (≈ 3.31 µM). Moreover, in the assay with Candida strains (A-J), the “MIC values against clinically relevant Candida strains” value was 0.78 µg/mL (≈ 3.31 µM).

Take `CC(C)(C)n1sc2ccccc2c1=O` [Compound 3g]: the MIC-0 in assay [1] was 0.10 µg/mL (≈ 0.482 µM); in assay [2], 0.10 µg/mL (≈ 0.482 µM); in assay [3], 0.10 µg/mL (≈ 0.482 µM); in assay [4], 1.56 µg/mL (≈ 7.53 µM); in assay [5], 0.78 µg/mL (≈ 3.76 µM); in assay [6], 0.78 µg/mL (≈ 3.76 µM). Besides, the MIC-0 in assay [7] is 1.56 µg/mL (≈ 7.53 µM). The “MIC values against Candida strains, range” value against Candida strains (A-J) (Candida strains A-J) was in the range of 0.78 to 3.13 µg/mL.

For `CCCCCn1sc2ccccc2c1=O` [Compound 3a], the MIC-0 in assay [1] was no more than 0.02 µg/mL; in assay [2], no more than 0.02 µg/mL; in assay [3], no more than 0.02 µg/mL; in assay [4] it was 1.56 µg/mL (≈ 7.05 µM); in assay [5], 0.78 µg/mL (≈ 3.52 µM); in assay [6], 1.56 µg/mL (≈ 7.05 µM). Besides, the MIC-0 in assay [7] stood at 0.78 µg/mL (≈ 3.52 µM). Moreover, the “MIC values against clinically relevant Candida strains” value against Candida strains (A-J) came out at 0.78 µg/mL (≈ 3.52 µM). Besides, the “fold more active than AmB” value in the assay with Candida strains (A-J) (anti-Candida) is 1.25- to 10 fold. Besides, the “fold more potent in MIC values than FLC” value in the assay on Candida strains (A-J) (anti-Candida, except against strain J) is listed as 20- to 320 fold.
